Like-named read-outs stand apart in the source and are kept apart here.
Tests used:
HIV-1 RT = target: T1, HIV-1 RT (Human immunodeficiency virus type 1 group M subtype B, UniProt P04585); experiment: HIV-1 Reverse Transcriptase Assay (RNA-dependent DNA polymerase activity, SPA); type: biochemical
T1 construct: HIV-1 RT enzyme (final concentrations of 1-3 nM)
Description: HIV-1 Reverse Transcriptase Assay
RNA-dependent DNA polymerase activity was measured using a biotinylated primer oligonucleotide and tritiated dNTP substrate. Newly synthesized DNA was quantified by capturing the biotinylated primer molecules on streptavidin coated Scintillation Proximity Assay (SPA) beads (Amersham). The sequences of the polymerase assay substrate were: 18 nt DNA primer, 5′-Biotin/GTC CCT GTT CGG GCG CCA-3′; 47 nt RNA template, 5′-GGGUCUCUCUGGUUAGACCACUCUAGCAGUGGCGCCCGAACAGGGAC-3′. The biotinylated DNA primer was obtained from the Integrated DNA Technologies Inc. and the RNA template was synthesized by Dharmacon. The DNA polymerase assay (final volume 50 μl) contained 32 nM biotinylated DNA primer, 64 nM RNA substrate, dGTP, dCTP, dTTP (each at 5 μM), 103 nM [^3H]-dATP (specific activity=[…]), in 45 mM Tris-HCl, pH 8.0, 45 mM NaCl, 2.7 mM Mg(CH3COO)2, 0.045% Triton X-100 w/v, 0.9 mM EDTA. The reations contained 5 ul of serial compound dilutions in 100% DMSO for IC50 determination and the final concentrations of DMSO were 10%. Reactions were initiated by the addition of 30 μl of the HIV-1 RT enzyme (final concentrations of 1-3 nM). Protein concentrations were adjusted to provide linear product formation for at least 30 min of incubation. After incubation at 30° C. for 30 min, the reaction was quenched by addition of 50 μl of 200 mM EDTA (pH 8.0) and 2 mg/ml SA-PVT SPA beads (Amersham, RPNQ0009, reconstituted in 20 mM Tris-HCl, pH 8.0, 100 mM EDTA and 1% BSA). The beads were left to settle overnight and the SPA signals were counted in a 96-well top counter-NXT (Packard). IC50 values were obtained by sigmoidal regression analysis using GraphPad.

[1] = tested on: HXB2-strain of HIV-1 in MT4 cells; experiment: Antiviral Assay (protection of HIV-1-infected MT4 cells from cell death, MTT); type: cell-based; conditions: Human immunodeficiency virus 1, 120 h, MT4 cells infected with HXB2-strain of HIV-1, 5 days
Description: Anti-HIV-1 antiviral activity was assessed using an adaptation of the method of Pauwels et al. (Pauwels et al., J Virol Methods 1988 20:309-321). The method is based on the ability of compounds to protect HIV-1-infected T lymphoblastoid cells (MT4 cells) from cell-death mediated by the infection. The endpoint of the assay was calculated as the concentration of compound at which the cell viability of the culture was preserved by 50% (‘50% inhibitory concentration’, IC50). The cell viability of a culture was determined by the uptake of soluble, yellow 3-[4,5-dimethylthiazol-2-yl]-2,5-diphenyltetrazolium bromide (MTT) and its reduction to a purple insoluble formazan salt. After solubilization, spectrophotometric methods were employed to measure the amount of formazan product. […]
A fresh solution of 5 mg/mL MTT was prepared in 0.01 M phosphate buffered saline, pH 7.2 and 20 microliters added to each culture. […] When the formazan deposit was fully solubilized by further mixing, the absorbance (OD) of the cultures was measured at 540 nm and 690 nm wavelength (690 nm readings were used as blanks for artifacts between wells). The percent protection for each treated culture was then calculated from the equation: […]

[2] = HIV-1 RT enzyme 1-3 nM, 30° C., 30 min, read-out: HIV-1 RT IC50

N#Cc1cc(Cl)cc(Oc2c(Br)ccc(Cn3c(=O)[nH]c4ccccc43)c2F)c1 [Compound I-1, 3-[6-Bromo-2-fluoro-3-(2-oxo-2,3-dihydro-benzoimidazol-1-ylmethyl)-phenoxy]-5-chloro-benzonitrile]
IC50 (HIV-1 RT; [2]): 12.2 nM
melting point: 227 to 229 °C

N#Cc1cc(Cl)cc(Oc2c(Br)ccc(Cn3c(=O)[nH]c4ncccc43)c2F)c1 [Compound I-2, 3-[6-Bromo-2-fluoro-3-(2-oxo-2,3-dihydro-imidazo[4,5-b]pyridin-1-ylmethyl)-phenoxy]-5-chloro-benzonitrile]
IC50 (HIV-1 RT; [2]): 5.8 nM
melting point: 255.5 to 258.5 °C

N#Cc1cc(Cl)cc(Oc2c(Br)ccc(Cn3c(=O)[nH]c4c3ccc[n+]4[O-])c2F)c1 [Compound I-3]
IC50 (HIV-1 RT; [2]): 15.9 nM
melting point: 259 to 260 °C

N#Cc1cc(Cl)cc(Oc2c(Br)ccc(Cn3c(=O)[nH]c4cnccc43)c2F)c1 [Compound I-4, 3-[6-Bromo-2-fluoro-3-(2-oxo-2,3-dihydro-imidazo[4,5-c]pyridin-1-ylmethyl)-phenoxy]-5-chloro-benzonitrile]
IC50 [1]: 0.4 nM
IC50 (HIV-1 RT): 5 nM
melting point: 219 to 221.5 °C

N#Cc1cc(Cl)cc(Oc2c(Br)ccc(Cn3c(=O)[nH]c4c[n+]([O-])ccc43)c2F)c1 [Compound I-5]
IC50 (HIV-1 RT; [2]): 492 nM
melting point: 226.8 to 229 °C

N#Cc1cc(Cl)cc(Oc2c(Cl)ccc(Cn3c(=O)[nH]c4cnccc43)c2F)c1 [Compound I-6, 3-Chloro-5-[6-chloro-2-fluoro-3-(2-oxo-2,3-dihydro-imidazo[4,5-c]pyridin-1-ylmethyl)-phenoxy]-benzonitrile]
IC50 (HIV-1 RT; [2]): 7 nM
melting point: 232 to 233 °C

N#Cc1cc(Cl)cc(Oc2c(Br)ccc(Cn3c(=O)[nH]c4nnccc43)c2F)c1 [Compound I-7, 3-[6-Bromo-2-fluoro-3-(6-oxo-6,7-dihydro-imidazo[4,5-c]pyridazin-5-ylmethyl)-phenoxy]-5-chloro-benzonitrile]
IC50 (HIV-1 RT; [2]): 5.1 nM

N#Cc1cc(Cl)cc(Oc2c(Br)ccc(Cn3cn[nH]c3=O)c2F)c1 [Compound I-8, 3-[6-Bromo-2-fluoro-3-(5-oxo-1,5-dihydro-[1,2,4]triazol-4-ylmethyl)-phenoxy]-5-chloro-benzonitrile]
IC50 (HIV-1 RT; [2]): 45.1 nM
melting point: 107 °C

CCc1n[nH]c(=O)n1Cc1ccc(Br)c(Oc2cc(Cl)cc(C#N)c2)c1F [Compound I-9, 3-[6-Bromo-3-(3-ethyl-5-oxo-1,5-dihydro-[1,2,4]triazol-4-ylmethyl)-2-fluoro-phenoxy]-5-chloro-benzonitrile]
IC50 (HIV-1 RT; [2]): 19.7 nM
melting point: 264 to 265 °C

Cc1n[nH]c(=O)n1Cc1ccc(Br)c(Oc2cc(Cl)cc(C#N)c2)c1F [Compound I-10, 3-[6-Bromo-2-fluoro-3-(3-methyl-5-oxo-1,5-dihydro-[1,2,4]triazol4-ylmethyl)-phenoxy]-5-chloro-benzonitrile]
IC50 (HIV-1 RT; [2]): 54.6 nM
melting point: 129.9 to 131 °C

N#Cc1cc(Cl)cc(Oc2c(Br)ccc(CNC(=O)Nc3ccccc3F)c2F)c1 [Compound I-11]
IC50 (HIV-1 RT; [2]): 33.1 nM
melting point: 215.5 to 215.8 °C

N#Cc1cc(Cl)cc(Oc2c(Br)ccc(COC(=O)Nc3ccc(Cl)cc3Cl)c2F)c1 [Compound I-12]
IC50 (HIV-1 RT; [2]): 68.2 nM
melting point: 138.3 to 139.9 °C

Source: US7947709B2, “Non-nucleoside reverse transcriptase inhibitors” (Roche Palo Alto LLC, priority 2007, dated 2011)
